# Experimental data reported in US20250262272A1, “PEPTIDES AND METHODS OF USE THEREOF IN TREATING SKIN DISEASES” (Park Strategic Ventures LLC, priority 2022, published 2025).
# Tests used:
# [1] = test system: imiquimod induced mouse model of psoriasis; assay: imiquimod induced mouse model of psoriasis; format: in vivo, C57BL/6 mice
# Excerpt: FIG. 2A illustrates the methodological details of an imiquimod induced mouse model of psoriasis. In particular, shown is a timeline of the psoriasis induction model and application of the MARCKS inhibitor (BIO 11006) and the three different outcomes analyzed.
# FIG. 2B illustrates the skin thickness in micrometers of mice administered imiquimod daily for seven (7) days in order to mimic psoriasis in one (1) test group as compared to the skin thickness in micrometers from either of two (2) control groups. The test group consisted of mice administered imiquimod daily plus intraperitoneal (ip) injection of BIO 11006 as a daily single dose on each of days 1-7. The two (2) control groups consisted of (1) mice administered vaseline and (2) mice administered imiquimod daily and phosphate buffered saline (PBS). N=6-7 mice, mean+SD, 1-way ANOVA, Tukey test.
# FIG. 3 depicts images of mice the skin on the nape of the neck for the test group and two control groups described for FIG. 2B and Example 1. #1, 2 and 3 represent same treatments.
# FIG. 4 illustrates the percent dryness, flakiness, skin bumps and redness the skin on the nape of the neck for the test group and two control groups described for FIG. 2B and Example 1. At a scale of 0-5, 0 indicated no visible signs or symptoms; 1-3 indicated moderate forms of the respective sign or symptom; 4-5 indicated major forms of the respective sign or symptom.
# Since skin inflammation and itch are common problems, two different mouse models with inflammation and itch were developed and used for rigorous in vivo testing of the inhibition of skin inflammation and itch in response to administration of the MARCKS inhibitor BIO11006 (Ac-GAQFSKTAAK-OH; SEQ ID NO: 106). The first model is a mouse model of AD induced using MC903. The second model is a mouse model of psoriasis induced using imiquimod. Imiquimod-induced disease progression of skin inflammation and itch resemble the MC903 mouse model. As such, the same relative timeline and drug delivery was used for the psoriasis mouse model as described for MC903 mouse model with exception that the terminal day was day 7 (D7 in FIG. 2A). As outlined in FIGS. 1A and 2A, these mouse models were used to conduct a comprehensive examination of how BIO11006 spatially and kinetically changed the skin following the onset of AD-like or psoriasis-like disease symptoms by measuring skin thickness, histological, molecular analysis of inflammatory markers, and itch behavior.
# Given that the significant skin inflammation was expected to start at day 5, BIO11006 (100 μM) was administered by intraperitoneal injection in three (3) different settings as described in FIG. 2A (i.e., daily single doses from Day 1 through Day 7, Days 6 and 7 or just Day 7). The skin thickness was measured at Day 0, 1, 3, 5, and 7. Additionally, the itch behavior was recorded at Day 0 and Day 7.
# [2] = test system: MC903 induced mouse model of atopic dermatitis (AD); assay: MC903 induced mouse model of atopic dermatitis (AD); format: in vivo, C57BL/6 mice; conditions: BIO11006 100 μM ip; day 10 only, days 9-10, days 4-10 or days 1-10
# Excerpt: FIG. 1A illustrates the methodological details of an MC903 induced mouse model of atopic dermatitis (AD). In particular, shown is a timeline of the AD induction model and application of the MARCKS inhibitor (BIO 11006) and the three different outcomes analyzed.
# FIG. 1B illustrates the skin thickness in micrometers of mice administered MC903 daily for ten (10) days in order to mimic atopic dermatitis (AD) in each of four (4) test groups as compared to the skin thickness in micrometers of mice from either of two (2) control groups. The four (4) test groups consisted of mice administered MC903 daily plus intraperitoneal (ip) injection of BIO 11006 as either (1) a single dose on day 10, (2) a single dose on each of days 9 and 10, (3) a single dose on each of days 4-10, and (4) a daily single dose on each of days 1-10. The two (2) control groups consisted of (1) mice administered the vehicle only and (2) mice administered MC903 daily and vehicle only. […]
# Given that the significant skin inflammation was expected to start at day 5, BIO11006 (100 μM) was administered by intraperitoneal injection in four (4) different settings as described in FIG. 1A (i.e., daily single doses from Day 1 through Day 10, Day 4 through Day 10, Days 9 and 10 or just Day 10). The skin thickness was measured at Day 0, 1, 3, 5, 7 and 10. Additionally, the itch behavior was recorded at Day 0 and Day 10.
# [3] = BIO11006 100 μM ip daily, days 1-7, nape of the neck, scale 0-5 (FIG. 4)
substance,measurement,setting,value
Ac-GAQFSKTAAK-OH [BIO 11006],visible appearance of the skin on the nape of the neck,"[1]; BIO11006 100 μM ip daily, days 1-7 (FIG. 3)",visible protection/improvement
same,skin bumps,[1]; [3],significant decreases
same,skin dryness,[1]; [3],significant decreases
same,skin flakiness,[1]; [3],significant decreases
same,skin redness,[1]; [3],significant decreases
same,skin thickness,"[1]; BIO11006 100 μM ip, daily single dose days 1-7, end of the study, vs imiquimod + PBS (FIG. 2B)",significant decrease
same,"results in the mouse model of AD (skin thickness, FIG. 1B)",[2],less conclusive
